The results in this text go back to patent publication US10441648B2, “Mycobacterium antigenic composition” (priority 2010, dated 2019).

Series [1] has as its system chicken Red Blood cells (RBC). The series can be described thus: QS21 lytic activity, haemolysis assay (limit test). The format is cell-based. The protocol: QS21 is known to lyse red blood cells (RBC).
QS21 lytic activity was measured by a haemolysis assay using chicken Red Blood cells (RBC). RBC were centrifuged at 550 g at 4° C. Supernatant was discarded. The pellet was carefully resuspended in PBS buffer to reach the initial volume and the same operation was repeated until supernatant was no longer red (generally 3 times). The pellet was stored at 4° C. for 3 to 4 days maximum if not used directly (and washed again the day it is used) or was diluted around 10 times in buffer if used the same day.
A QS21 dose range curve was prepared in ASA buffer (in salt or in sorbitol buffer following the ASA sample tested) extemporaneously and the adjuvant samples (containing a 50 ug or 90 ug equivalent of QS21 meaning the equivalent of 500 ul or 900 ul ASA) were prepared. Final volume was adjusted to 900 ul in standards and samples with adequate buffer (containing or not sorbitol as a function of the buffer of the sample tested). Due to its opalescence, ASA interferes with optical density (OD). ASA “blanks” were thus prepared and their OD was subtracted from the OD of ASA tested samples. Those blanks corresponded to the same ASA volume as the volume tested in samples, but adjusted to 1 ml with buffer. No RBC were added to these blanks. Standards and samples were then incubated with RBC (100 ul of diluted RBC added to 900 ul of standards and samples) for 30 minutes at room temperature (RT). Samples were then centrifuged 5 minutes at 900 g. Optical density at 540 nm was measured after centrifugation.
Determination of lytic activity was carried out by a limit test.
1. Limit of detection (LOD) was defined as the lowest concentration of QS21 leading to an OD: • Higher than the base level (OD>0.1) • Around three times higher than OD's buffer (the “0 ug” QS21) • In the ascendant part of the curve • Determined for each test.
2. QS21 lytic activity was held to be positive in the adjuvant samples if the OD for the adjuvant sample was greater than the ODLOD. […]

Series [2] in a line: Conductivity determination (Malvern Zetasizer Nano). The format is physicochemical. The protocol: A range of standards having sodium chloride concentrations of 0, 75, 100, 150, 250 and 300 mM were prepared from a stock solution of 1500 mM sodium chloride by dilution in water for injection.
Immunogenic compositions were prepared using M72 with two N-terminal His residues according to the procedures provided in Example 8. To investigate the contribution from the antigen itself and any residual materials in the purified bulk, placebo lyophilisation cakes were also prepared by excluding the antigen component.
Using a Malvern Zetasizer Nano and 1.5 ml of each sample in folded capillary cells, a voltage of 30 to 150 V (determined automatically by the instrument) was applied and the conductivity determined.

Series [3] can be described thus: DLS antigen size of M72 at varied pH and NaCl (salting out). The format is physicochemical. The protocol:
Purified bulk antigen (M72 with two N-terminal His residues, SEQ ID No: 3, as prepared in Example 8) was diluted to a concentration of 100 ug/ml in three different buffers (10 mM phosphate buffer at pH 6.1, 20 mM Tris buffer at pH 7.5 and 20 mM Tris buffer at pH 8.5) containing final sodium chloride concentrations of 0, 50, 150, 300 and 450 mM.
Samples were analysed immediately (TO), stored overnight at 4° C. before analysis (T0 O/N) or stored at 25° C. for 24 hours before analysis (T24 h 25° C.).
DLS was performed using a Malvern Zetasizer Nano ZS from Malvern Instruments (UK). The instrument was operated using a laser wavelength of 633 nm and power of 4 mW. Scattered light was detected at 173° at a temperature of 22° C. The Z-average diameter (Zav) and polydispersity index (pi) are calculated by the instrument software.

Series [4] is described as follows: DLS and nephelometry of Mtb72f at varied pH and NaCl. The following applies: pH 6.1, 7.5, 8.5; 0, 150, 450 mM sodium chloride; 24 hours at 4° C. or 25° C. Type of series: physicochemical.
Where [5] appears, read: pH 6.1, even in the absence of sodium chloride.
Setting [6] is: pH 7.5 or 8.5, over 24 hours at 25° C., particularly 0 or 50 mM sodium chloride.
Setting [7] is: pH 7.5 or 8.5, sodium chloride increased to 150 mM or greater.

Like-named read-outs stand apart in the source and are kept apart here.

QS21: the OD in series [1] (0.5 ug QS21, 150 mM sodium chloride buffer, optical density at 540 nm, 30 minutes RT with RBC) is given as 0.052; in series [1] (0.6 ug QS21, 150 mM sodium chloride buffer, 540 nm) it was 0.073; in series [1] (0.7 ug QS21, 150 mM sodium chloride buffer, 540 nm) it was 0.091; in series [1] (0.8 ug QS21, 150 mM sodium chloride buffer, 540 nm), 0.096; in series [1] (0.9 ug QS21 (limit of detection), 150 mM sodium chloride buffer, 540 nm), 0.12; in series [1] (1 ug QS21, 150 mM sodium chloride buffer, 540 nm), 0.195. For the same molecule, the OD in series [1] (1.1 ug QS21, 150 mM sodium chloride buffer, 540 nm) came out at 0.212; in series [1] (1.2 ug QS21, 150 mM sodium chloride buffer, 540 nm) it was 0.348; in series [1] (1.3 ug QS21, 150 mM sodium chloride buffer, 540 nm), 0.479; in series [1] (1.4 ug QS21, 150 mM sodium chloride buffer, 540 nm), 0.612; in series [1] (1.5 ug QS21, 150 mM sodium chloride buffer, 540 nm), 0.669; in series [1] (2 ug QS21, 150 mM sodium chloride buffer, 540 nm) it was 1.139. Also, the OD in series [1] (2.5 ug QS21, 150 mM sodium chloride buffer, 540 nm) amounted to 1.294; in series [1] (3 ug QS21, 150 mM sodium chloride buffer, 540 nm) it was 1.391; in series [1] (5 ug QS21, 150 mM sodium chloride buffer, 540 nm), 1.416.

As for `[Cl-].[Na+]` [sodium chloride], the Conductivity in series [2] (sodium chloride standard solution 75 mM in water for injection) turned out to be 8.2 mS/cm; in series [2] (sodium chloride standard solution 100 mM) it was 10.7 mS/cm; in series [2] (sodium chloride standard solution 150 mM), 15.6 mS/cm; in series [2] (sodium chloride standard solution 250 mM) it was 23.9 mS/cm; in series [2] (sodium chloride standard solution 300 mM), 30.0 mS/cm.

B1: M72: purified bulk antigen, M72 with two N-terminal His residues, SEQ ID No: 3 (protein)
chain: MHHTAASDNFQLSQGGQGFAIPIGQAMAIAGQIRSGGGSPTVHIGPTAFLGLGVVDNNGNGARVQRVVGSAPAASLGISTGDVITAVDGAPINSATAMADALNGHHPGDVISVTWQTKSGGTRTGNVTLAEGPPAEFMVDFGALPPEINSARMYAGPGSASLVAAAQMWDSVASDLFSAASAFQSVVWGLTVGSWIGSSAGLMVAAASPYVAWMSVTAGQAELTAAQVRVAAAAYETAYGLTVPPPVIAENRAELMILIATNLLGQNTPAIAVNEAEYGEMWAQDAAAMFGYAAATATATATLLPFEEAPEMTSAGGLLEQAAAVEEASDTAAANQLMNNVPQALQQLAQPTQGTTPSSKLGGLWKTVSPHRSPISNMVSMANNHMSMTNSGVSMTNTLSSMLKGFAPAAAAQAVQTAAQNGVRAMSSLGSSLGSSGLGGGVAANLGRAASVGSLSVPQAWAAANQAVTPAARALPLTSLTSAAERGPGQMLGGLPVGQMGARAGGGLSGVLRVPPRPYVMPHSPAAGDIAPPALSQDRFADFPALPLDPSAMVAQVGPQVVNINTKLGYNNAVGAGTGIVIDPNGVVLTNNHVIAGATDINAFSVGSGQTYGVDVVGYDRTQDVAVLQLRGAGGLPSAAIGGGVAVGEPVVAMGNSGGQGGTPRAVPGRVVALGQTVQASDSLTGAEETLNGLIQFDAAIQPGDAGGPVVNGLGQVVGMNTAAS
modifications: M72 fusion with 2 additional his residues
B1: the “antigen size (DLS)” value in series [3] (pH 6.1, 0 mM sodium chloride, T0) is given as 35 nm; in series [3] (pH 6.1, 50 mM sodium chloride, T0), 58 nm; in series [3] (pH 6.1, 50 mM sodium chloride, after 24 hours at 25° C.) it was 79 nm. The “stability of antigen size” value in series [3] (setting [5]) was “not stable”; in series [3] (setting [6]), “relatively stable”. The “change in antigen size” value in series [3] (setting [7]) was “clear increase”. For the same molecule, the stability of antigenicity result by setting is: under setting [5], “not stable”; under setting [6], “relatively stable”. Also, the change in antigenicity result under setting [7] is given as “reduction”.

B2: Mtb72f: purified bulk antigen, Mtb72f with 6 his residues, SEQ ID No: 7 (protein)
chain: MHHHHHHTAASDNFQLSQGGQGFAIPIGQAMAIAGQIRSGGGSPTVHIGPTAFLGLGVVDNNGNGARVQRVVGSAPAASLGISTGDVITAVDGAPINSATAMADALNGHHPGDVISVTWQTKSGGTRTGNVTLAEGPPAEFMVDFGALPPEINSARMYAGPGSASLVAAAQMWDSVASDLFSAASAFQSVVWGLTVGSWIGSSAGLMVAAASPYVAWMSVTAGQAELTAAQVRVAAAAYETAYGLTVPPPVIAENRAELMILIATNLLGQNTPAIAVNEAEYGEMWAQDAAAMFGYAAATATATATLLPFEEAPEMTSAGGLLEQAAAVEEASDTAAANQLMNNVPQALQQLAQPTQGTTPSSKLGGLWKTVSPHRSPISNMVSMANNHMSMTNSGVSMTNTLSSMLKGFAPAAAAQAVQTAAQNGVRAMSSLGSSLGSSGLGGGVAANLGRAASVGSLSVPQAWAAANQAVTPAARALPLTSLTSAAERGPGQMLGGLPVGQMGARAGGGLSGVLRVPPRPYVMPHSPAAGDIAPPALSQDRFADFPALPLDPSAMVAQVGPQVVNINTKLGYNNAVGAGTGIVIDPNGVVLTNNHVIAGATDINAFSVGSGQTYGVDVVGYDRTQDVAVLQLRGAGGLPSAAIGGGVAVGEPVVAMGNSGGQGGTPRAVPGRVVALGQTVQASDSLTGAEETLNGLIQFDAAIQPGDSGGPVVNGLGQVVGMNTAAS
modifications: 6 His tag; Mtb72f fusion with 6 additional his residues
For B2, the “sensitivity of size (DLS and nephelometry) to salt and pH” value in series [4] is “sensitive to salt concentration and pH”.
